ChEMBL document CHEMBL3232945 (Eur J Med Chem, 2014)

Key:
Rattus norvegicus [1] = assay: Toxicity in anaesthetized-Wistar rat assessed as P-Q ECG interval at 40 mg/kg, ip after 15 mins (reference value: 52.2 +/- 1.158 ms); format: organism-based; set-up: dose 40 mg/kg, route intraperitoneal; details: in vivo, 0.25 h
Rattus norvegicus [2] = assay: Toxicity in anaesthetized-Wistar rat assessed as P-Q ECG interval at 40 mg/kg, ip after 45 mins (reference value: 52.5 +/- 0.780 ms); format: organism-based; set-up: dose 40 mg/kg, route intraperitoneal; details: in vivo, 0.75 h
Rattus norvegicus [3] = assay: Toxicity in anaesthetized-Wistar rat assessed as Q-T ECG interval at 40 mg/kg, ip after 60 mins (reference value: 79.7 +/- 0.965 ms); format: organism-based; set-up: dose 40 mg/kg, route intraperitoneal; details: in vivo, 1 h
Rattus norvegicus [4] = assay: Antihypertensive activity in Wistar rat assessed as mean arterial pressure at 40 mg/kg, ip after 45 mins (reference value: 193.96 +/- 0.865 mmHg); format: functional, Artery; details: route intraperitoneal
Rattus norvegicus [5] = assay: Toxicity in anaesthetized-Wistar rat assessed as QRS ECG interval at 40 mg/kg, ip after 45 mins (reference value: 20.2 +/- 1.348 ms); format: organism-based; set-up: dose 40 mg/kg, route intraperitoneal; details: in vivo, 0.75 h
Rattus norvegicus [6] = assay: Toxicity in anaesthetized-Wistar rat assessed as QRS ECG interval at 40 mg/kg, ip measured immediately at 0 min (reference value: 19.6 +/- 1.142 ms); format: organism-based; set-up: dose 40 mg/kg, route intraperitoneal; details: in vivo, 0 h
Rattus norvegicus [7] = assay: Antihypertensive activity in Wistar rat assessed as mean arterial pressure at 40 mg/kg, ip after 15 mins (reference value: 195.68 +/- 1.623 mmHg); format: functional, Artery; details: route intraperitoneal
Rattus norvegicus [8] = assay: Toxicity in anaesthetized-Wistar rat assessed as Q-T ECG interval at 40 mg/kg, ip measured immediately at 0 min (reference value: 78.8 +/- 1.030 ms); format: organism-based; set-up: dose 40 mg/kg, route intraperitoneal; details: in vivo, 0 h
Rattus norvegicus [9] = assay: Toxicity in […] normotensive Wistar rat assessed as mean arterial pressure at 40 mg/kg, ip after 30 mins (reference value: 94.68 +/- 1.213 mmHg); format: organism-based, Artery; set-up: dose 40 mg/kg, route intraperitoneal; details: in vivo, 0.5 h
Rattus norvegicus [10] = assay: Toxicity in […] normotensive Wistar rat assessed as mean arterial pressure at 40 mg/kg, ip after 15 mins (reference value: 93.81 +/- 1.543 mmHg); format: organism-based, Artery; set-up: dose 40 mg/kg, route intraperitoneal; details: in vivo, 0.25 h
Rattus norvegicus [11] = assay: Toxicity in anesthetized-normotensive Wistar rat assessed as heart rate at 40 mg/kg, ip after 15 mins (reference value: 313.93 +/- 9.912 bpm); format: organism-based; set-up: dose 40 mg/kg, route intraperitoneal; details: in vivo, 0.25 h
Rattus norvegicus [12] = assay: Toxicity in anesthetized-normotensive Wistar rat assessed as heart rate at 40 mg/kg, ip after 45 mins (reference value: 316.82 +/- 8.452 bpm); format: organism-based; set-up: dose 40 mg/kg, route intraperitoneal; details: in vivo, 0.75 h
Rattus norvegicus [13] = assay: Toxicity in anaesthetized-Wistar rat assessed as P-Q ECG interval at 40 mg/kg, ip measured immediately at 0 min (reference value: 52.4 +/- 0.927 ms); format: organism-based; set-up: dose 40 mg/kg, route intraperitoneal; details: in vivo, 0 h
Rattus norvegicus [14] = assay: Antiarrhythmic activity in barium chloride-induced Wistar rat assessed as increase in mortality time at 40 mg/kg, ip administered 60 mins before barium chloride challenge (reference value: 682.8 +/- 9.656 secs); format: functional, Heart; details: route intraperitoneal
Rattus norvegicus [15] = assay: Toxicity in anaesthetized-Wistar rat assessed as QRS ECG interval at 40 mg/kg, ip after 30 mins (reference value: 19.9 +/- 1.393 ms); format: organism-based; set-up: dose 40 mg/kg, route intraperitoneal; details: in vivo, 0.5 h
Rattus norvegicus [16] = assay: Antiarrhythmic activity in barium chloride-induced Wistar rat assessed as increase in appearance time of arrhythmia at 40 mg/kg, ip administered 60 mins before barium chloride challenge (reference value: 129.4 +/- 4.373 sec); format: functional, Heart; details: route intraperitoneal
Rattus norvegicus [17] = assay: Toxicity in anesthetized-normotensive Wistar rat assessed as heart rate at 40 mg/kg, ip after 30 mins (reference value: 317.68 +/- 7.631 bpm); format: organism-based; set-up: dose 40 mg/kg, route intraperitoneal; details: in vivo, 0.5 h
Rattus norvegicus [18] = assay: Toxicity in anaesthetized-Wistar rat assessed as Q-T ECG interval at 40 mg/kg, ip after 15 mins (reference value: 79.4 +/- 1.270 ms); format: organism-based; set-up: dose 40 mg/kg, route intraperitoneal; details: in vivo, 0.25 h
Rattus norvegicus [19] = assay: Toxicity in anesthetized-normotensive Wistar rat assessed as heart rate at 40 mg/kg, ip after 60 mins (reference value: 314.96 +/- 9.442 bpm); format: organism-based; set-up: dose 40 mg/kg, route intraperitoneal; details: in vivo, 1 h
Rattus norvegicus [20] = assay: Toxicity in anaesthetized-Wistar rat assessed as P-Q ECG interval at 40 mg/kg, ip after 60 mins (reference value: […] +/- 0.924 ms); format: organism-based; set-up: dose 40 mg/kg, route intraperitoneal; details: in vivo, 1 h
Rattus norvegicus [21] = assay: Toxicity in anaesthetized-Wistar rat assessed as QRS ECG interval at 40 mg/kg, ip after 60 mins (reference value: 19.3 +/- 0.873 ms); format: organism-based; set-up: dose 40 mg/kg, route intraperitoneal; details: in vivo, 1 h
Rattus norvegicus [22] = assay: Toxicity in […] normotensive Wistar rat assessed as mean arterial pressure at 40 mg/kg, ip after 45 mins (reference value: 94.83 +/- 0.943 mmHg); format: organism-based, Artery; set-up: dose 40 mg/kg, route intraperitoneal; details: in vivo, 0.75 h
Rattus norvegicus [23] = assay: Toxicity in […] normotensive Wistar rat assessed as mean arterial pressure at 40 mg/kg, ip after 60 mins (reference value: 95.07 +/- 1.973 mmHg); format: organism-based, Artery; set-up: dose 40 mg/kg, route intraperitoneal; details: in vivo, 1 h
Rattus norvegicus [24] = assay: Antihypertensive activity in Wistar rat assessed as mean arterial pressure at 40 mg/kg, ip measured immediately at 0 min (reference value: 194.08 +/- 1.962 mmHg); format: functional, Artery; details: route intraperitoneal
Rattus norvegicus [25] = assay: Toxicity in anesthetized-normotensive Wistar rat assessed as heart rate at 40 mg/kg, ip measured immediately at 0 min (reference value: 316.62 +/- 9.643 bpm); format: organism-based; set-up: dose 40 mg/kg, route intraperitoneal; details: in vivo, 0 h
Rattus norvegicus [26] = assay: Toxicity in anaesthetized-Wistar rat assessed as Q-T ECG interval at 40 mg/kg, ip after 30 mins (reference value: 78.3 +/- 0.860 ms); format: organism-based; set-up: dose 40 mg/kg, route intraperitoneal; details: in vivo, 0.5 h
Rattus norvegicus [27] = assay: Antihypertensive activity in Wistar rat assessed as mean arterial pressure at 40 mg/kg, ip after 60 mins (reference value: 195.11 +/- 0.531 mmHg); format: functional, Artery; details: route intraperitoneal
Rattus norvegicus [28] = assay: Toxicity in anaesthetized-Wistar rat assessed as P-Q ECG interval at 40 mg/kg, ip after 30 mins (reference value: […] +/- 0.927 ms); format: organism-based; set-up: dose 40 mg/kg, route intraperitoneal; details: in vivo, 0.5 h
Rattus norvegicus [29] = assay: Toxicity in […] normotensive Wistar rat assessed as mean arterial pressure at 40 mg/kg, ip measured immediately at 0 min (reference value: 94.21 +/- 2.065 mmHg); format: organism-based, Artery; set-up: dose 40 mg/kg, route intraperitoneal; details: in vivo, 0 h
Rattus norvegicus [30] = assay: Toxicity in anaesthetized-Wistar rat assessed as QRS ECG interval at 40 mg/kg, ip after 15 mins (reference value: 18.9 +/- 1.563 ms); format: organism-based; set-up: dose 40 mg/kg, route intraperitoneal; details: in vivo, 0.25 h
Rattus norvegicus [31] = assay: Antihypertensive activity in Wistar rat assessed as mean arterial pressure at 40 mg/kg, ip after 30 mins (reference value: 194.72 +/- 1.002 mmHg); format: functional, Artery; details: route intraperitoneal

Row | Structure (SMILES) | Activity (Rattus norvegicus [1]) | Activity (Rattus norvegicus [2]) | Activity (Rattus norvegicus [3]) | Activity (Rattus norvegicus [4]) | Activity (Rattus norvegicus [5]) | Activity (Rattus norvegicus [6]) | Activity (Rattus norvegicus [7]) | Activity (Rattus norvegicus [8]) | Activity (Rattus norvegicus [9]) | Activity (Rattus norvegicus [10]) | Activity (Rattus norvegicus [11]) | Activity (Rattus norvegicus [12]) | Activity (Rattus norvegicus [13]) | Time (Rattus norvegicus [14]) | Activity (Rattus norvegicus [15]) | Time (Rattus norvegicus [16]) | Activity (Rattus norvegicus [17]) | Activity (Rattus norvegicus [18]) | Activity (Rattus norvegicus [19]) | Activity (Rattus norvegicus [20]) | other results
1 | CN1CCN(CC(O)CN2C(=O)/C(=C\c3ccccc3)S/C2=N\c2ccccc2)CC1 (stereo not drawn) | 53.2 min | 54.9 min | 75.6 ms | 134.44 mmHg | 23.6 min | 22.4 min | 182.76 mmHg | 74.5 min | 63.43 mmHg | 79.37 mmHg | 290.24 bpm | 283.56 bpm | 53 ms | 1276 s | 23.2 ms | 349.7 s | 256.32 bpm | 74.8 min | 302.28 bpm | 55.6 min | Activity (Rattus norvegicus [21]): 24 min; Activity (Rattus norvegicus [22]): 64.51 mmHg; Activity (Rattus norvegicus [23]): 74.63 mmHg; Activity (Rattus norvegicus [24]): 196.43 mmHg; Activity (Rattus norvegicus [25]): 305.65 bpm; Activity (Rattus norvegicus [26]): 75.2 min; Activity (Rattus norvegicus [27]): 162.19 mmHg; Activity (Rattus norvegicus [28]): 54.4 min; Activity (Rattus norvegicus [29]): 91.93 mmHg; Activity (Rattus norvegicus [30]): 22.6 min; Activity (Rattus norvegicus [31]): 157.99 mmHg
2 | O=C1/C(=C\c2ccccc2)S/C(=N\c2ccccc2)N1CC(O)CN1CCCC1 (stereo not drawn) | 51.6 min | 53.3 min | 70.9 ms | 149.39 mmHg | 21.1 min | 20.5 min | 165.01 mmHg | 70.6 min | 74.76 mmHg | 84.63 mmHg | 298.54 bpm | 287.15 bpm | 50.2 ms | 918.8 s | 22.5 ms | 285.3 s | 256.85 bpm | 71.2 min | 309.32 bpm | 52.8 min | Activity (Rattus norvegicus [21]): 20.6 min; Activity (Rattus norvegicus [22]): 69.69 mmHg; Activity (Rattus norvegicus [23]): 73.12 mmHg; Activity (Rattus norvegicus [24]): 196.1 mmHg; Activity (Rattus norvegicus [25]): 318.73 bpm; Activity (Rattus norvegicus [26]): 72.6 min; Activity (Rattus norvegicus [27]): 177.56 mmHg; Activity (Rattus norvegicus [28]): 54.3 min; Activity (Rattus norvegicus [29]): 93.02 mmHg; Activity (Rattus norvegicus [30]): 21.3 min; Activity (Rattus norvegicus [31]): 148.37 mmHg
3 | O=C1/C(=C\c2ccccc2)S/C(=N\c2ccccc2)N1CC(O)CN1CCN(Cc2ccccc2)CC1 (stereo not drawn) | 50.4 min | 51.3 min | 74.2 ms | 166.41 mmHg | 23.1 min | 23.4 min | 179.02 mmHg | 74.3 min | 78.19 mmHg | 92.1 mmHg | 312.34 bpm | 298.21 bpm | 49.8 ms | 986.7 s | 23.8 ms | 296.9 s | 283.52 bpm | 74.9 min | 312.21 bpm | 52.7 min | Activity (Rattus norvegicus [21]): 23.7 min; Activity (Rattus norvegicus [22]): 72.57 mmHg; Activity (Rattus norvegicus [23]): 85.44 mmHg; Activity (Rattus norvegicus [24]): 194.51 mmHg; Activity (Rattus norvegicus [25]): 333.62 bpm; Activity (Rattus norvegicus [26]): 73.2 min; Activity (Rattus norvegicus [27]): 179.51 mmHg; Activity (Rattus norvegicus [28]): 50.9 min; Activity (Rattus norvegicus [29]): 95.09 mmHg; Activity (Rattus norvegicus [30]): 23.2 min; Activity (Rattus norvegicus [31]): 160.63 mmHg
